BigSolDB 2.1

COC(=O)c1ccnc(N)c1
solubility (mole fraction)
Details | 278.15 K | 283.15 K | 288.15 K | 293.15 K | 298.15 K | 303.15 K | 308.15 K | 313.15 K | 318.15 K | 323.15 K
in DMF | 0.00726 | 0.0087 | 0.0105 | 0.0126 | 0.0152 | 0.0183 | 0.0216 | 0.0249 | 0.0292 | 0.0339
in acetonitrile | 0.00539 | 0.00665 | 0.00838 | 0.0104 | 0.0127 | 0.015 | 0.0177 | 0.0206 | 0.0241 | 0.0277
in ethanol | 0.00321 | 0.00385 | 0.0047 | 0.00577 | 0.00694 | 0.00821 | 0.00976 | 0.0114 | 0.0132 | 0.0154
in isopropanol | 0.00385 | 0.0048 | 0.00601 | 0.00728 | 0.00889 | 0.0104 | 0.0122 | 0.0141 | 0.0163 | 0.019
in methanol | 0.00173 | 0.0021 | 0.00255 | 0.00312 | 0.00379 | 0.00453 | 0.00557 | 0.00665 | 0.00798 | 0.00946
in n-propanol | 0.00422 | 0.00528 | 0.00655 | 0.00813 | 0.00977 | 0.0117 | 0.0137 | 0.0163 | 0.019 | 0.0217
in toluene | 0.00824 | 0.00987 | 0.0122 | 0.0147 | 0.0177 | 0.0208 | 0.0243 | 0.0282 | 0.0327 | 0.0377
in water | 0.000935 | 0.00117 | 0.00142 | 0.00178 | 0.00217 | 0.00258 | 0.00302 | 0.00356 | 0.00416 | 0.00489
